We go through two molecules from article PMC6197257 (Scientific Reports, 2018).

One data set concerns the target T1, OAT3 (Homo sapiens, UniProt Q8TCC7).
T1 construct: expressed in transfected cells
T1 sequence (Q8TCC7 1-542): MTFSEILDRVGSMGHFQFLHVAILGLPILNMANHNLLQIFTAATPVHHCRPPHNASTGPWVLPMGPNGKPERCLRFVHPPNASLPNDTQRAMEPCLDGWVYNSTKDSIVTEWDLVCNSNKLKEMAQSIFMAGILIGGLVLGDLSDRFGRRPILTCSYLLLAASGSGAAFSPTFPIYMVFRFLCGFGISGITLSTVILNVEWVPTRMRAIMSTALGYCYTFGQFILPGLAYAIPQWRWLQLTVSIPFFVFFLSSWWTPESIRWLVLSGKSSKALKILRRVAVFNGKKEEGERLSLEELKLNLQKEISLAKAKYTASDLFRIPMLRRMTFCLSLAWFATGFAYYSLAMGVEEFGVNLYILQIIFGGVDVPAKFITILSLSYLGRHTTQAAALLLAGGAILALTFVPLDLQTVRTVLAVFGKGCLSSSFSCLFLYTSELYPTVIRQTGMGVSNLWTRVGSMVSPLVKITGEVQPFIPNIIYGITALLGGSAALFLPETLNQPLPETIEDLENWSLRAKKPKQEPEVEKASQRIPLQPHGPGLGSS
The settings on record: cited from earlier work.

The next data set has as its target T2, OAT1 (Homo sapiens, UniProt Q4U2R8).
T2 construct: expressed in transfected cells
T2 sequence (Q4U2R8 1-563): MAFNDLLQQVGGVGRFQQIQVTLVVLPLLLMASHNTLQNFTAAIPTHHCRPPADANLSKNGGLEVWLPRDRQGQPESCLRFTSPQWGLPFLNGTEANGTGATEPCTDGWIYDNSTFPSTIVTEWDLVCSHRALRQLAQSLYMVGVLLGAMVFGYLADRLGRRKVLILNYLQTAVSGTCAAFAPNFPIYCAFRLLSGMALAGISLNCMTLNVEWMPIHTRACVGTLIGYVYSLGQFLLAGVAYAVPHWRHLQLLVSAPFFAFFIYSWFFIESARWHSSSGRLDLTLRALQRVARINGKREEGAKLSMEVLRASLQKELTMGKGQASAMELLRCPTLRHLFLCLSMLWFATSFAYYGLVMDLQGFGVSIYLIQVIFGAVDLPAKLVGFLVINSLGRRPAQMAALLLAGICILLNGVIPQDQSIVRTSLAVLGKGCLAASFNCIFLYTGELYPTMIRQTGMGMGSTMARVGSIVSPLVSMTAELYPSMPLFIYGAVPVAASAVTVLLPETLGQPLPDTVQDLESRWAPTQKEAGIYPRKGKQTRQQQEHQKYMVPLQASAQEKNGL
Particulars: cited from earlier work.

Another data set relates to anti-3MGA MAb. In words: competitive ELISA cross-reactivity of anti-3MGA MAb. The data set is classed as binding, mouse. The settings on record: CR = IC50 for 3MGA / IC50 for compound x 100, 3MGA calibrated as 100%. As for the experimental part: To activate the hapten 3MGA for the preparation of anti-3MGA MAb, the 3MGA-KLH conjugate was synthesized by using a model based on the carbodiimide method with both EDC and NHS reagents. 3MGA-HSA was also prepared using the same method, and was used for ELISA. We also evaluated the hapten number of the 3MGA-HSA conjugate by MALDI-TOF MS analysis. […] The MAb was developed by using the same methods described in our previous study. Hybridomas secreting antibodies recognizing 3MGA were selected by ELISA and then subcloned 4 times by the limited dilution method. […] The heavy chain of the obtained MAb was classified using a Calbiochem mouse hybridoma subisotyping kit (EMD Biosciences, Darmstadt, Germany), whereas the light chain was estimated using an IsoQuick^TM mouse monoclonal isotyping strip (Sigma) according to the manufacturer’s instructions.
3MGA-HSA (1 µg/ml in 50 mM carbonate buffer, pH 9.6) was added into a 96-well plate (Nagel Nunc, Penfield, NY, USA) (100 µl/well), and incubated at 37 °C for 1 h. After the removal of 3MGA-HSA, the wells were washed with 200 µl/well PBS containing 0.05% Tween 20 (T-PBS) for 3 times. The wells were incubated with 300 µl/well of 5% skim milk (Morinaga-milk, Tokyo, Japan) at 4 °C overnight. […] After the wells were washed with T-PBS 3 times, HRP-labeled goat anti-mouse IgG (Fc specific) antibody (1:1,000 dilution with T-PBS) was added into the wells (100 µl/well), and the plate was incubated at 37 °C for 1 h. Next, the wells were washed with T-PBS 3 times, the substrate solution (0.006% H2O2 in 200 mM citrate buffer, pH 4.0/H2O/0.6 mg/ml ABTS 10:9:1) was added into the wells (100 µl/well), and incubated at room temperature for 15 min.

Data set [1] is described as follows: pharmacokinetic profile of 3MGA in EHBRs orally treated with GA (50 mg/kg). Type of data set: in vivo. The settings on record: Eisai Hyperbilirubinemia rats (EHBR), rat, plasma; female EHBRs, GA 50 mg/kg oral; read-out: time of maximum plasma concentration. As for the experimental part: Female EHBRs (8 or 9-week-old) were orally treated with GA (50 mg/kg) suspended in 0.5% CMC, and kept in metabolic cages. Blood samples (approximately 0.3 ml) were collected from the tail 1, 2, 3, 6, 12, 24, and 48 h after the oral treatment. Urine samples were collected 6, 12, 24, and 48 h after the oral treatment. The concentrations of 3MGA in the samples were measured by both ELISA and LC-MS/MS described in our previous paper. Ten µl aliquots of plasma or urine from rats treated with GA, or standard solution of 3MGA in plasma or urine collected from normal rats were mixed with 20 µl of 1:1,000 diluted subtilisin, and incubated at 37 °C for 30 min. After adding 70 µl of EtOH containing 10 µg/ml of PHB used as internal standard, the solution was applied into the system. The mass spectrometer used an electrospray ionization source in the positive ion mode with multiple reaction monitoring (ESI(+)MS-MRM). The analytical column was an Inertsil ODS-4, 2 mm i.d. ×75 mm, 3 µm (GL Sciences Inc., Tokyo, Japan). […] The transitions (precursor to daughter) monitored and retention times were 647.4 to 453.5 m/z for 3MGA (4.4 min) and 195.2 to 139.0 m/z for PHB (4.8 min). […]

The next data set addresses T3, rat 11β-HSD2 (Rattus norvegicus, UniProt P50233).
T3 construct: kidney microsome fractions were obtained from male Wistar rats (7-week-old); from tissue; host or cells: rat kidney microsome fraction (male Wistar rats)
T3 sequence (P50233 1-400): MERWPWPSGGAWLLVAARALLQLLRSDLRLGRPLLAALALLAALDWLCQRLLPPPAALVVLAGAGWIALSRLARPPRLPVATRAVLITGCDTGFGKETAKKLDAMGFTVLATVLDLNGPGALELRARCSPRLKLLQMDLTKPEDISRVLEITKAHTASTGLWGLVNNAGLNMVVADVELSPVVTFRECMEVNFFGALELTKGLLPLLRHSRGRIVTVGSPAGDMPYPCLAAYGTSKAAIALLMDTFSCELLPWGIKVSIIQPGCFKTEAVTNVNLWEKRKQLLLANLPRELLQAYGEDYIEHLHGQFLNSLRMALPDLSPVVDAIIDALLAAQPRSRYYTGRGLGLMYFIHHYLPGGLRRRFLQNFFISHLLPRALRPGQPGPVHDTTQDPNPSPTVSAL
The settings on record: previous study; cited from earlier work.

Another data set deals with CYP2C9. More on the design: method as in PMID 26712778, PMID 22943175. The settings on record: competitive inhibitor; cited from earlier work.
A further data set relates to CYP2C19. More on the design: method as in PMID 26712778, PMID 22943175. The settings on record: competitive inhibitor; cited from earlier work.
Data set [2] in a line: concentrations in pooled plasma of EHBRs 12 h after oral GA (200 mg/kg). Type of data set: in vivo. The settings on record: Eisai Hyperbilirubinemia rats (EHBR), rat. As for the experimental part:
Three female and three male EHBRs (9-week-old, respectively) were injected with urethane (1 g/kg, i.p.), and orally treated with an aqueous GA aqueous suspension (200 mg/kg in 1% CMC). Twelve h after the treatment, blood was collected from the abdominal vena cava, and the plasma samples of each sex rat were pooled.
LC-ESI(+)MS/MS analysis was conducted at the following conditions: column, Scherzo SM-C18 (3 μm, 3 mm i.d. ×100 mm, Imtakt, Kyoto, Japan); mobile phase, (A) 5 mM AcNH4, (B) 125 mM AcNH4/acetonitrole 1:4, at a flow rate of 0.3 ml/min, with the following gradient profile: A:B = 50:50–0:100 (0–3 min) and 0:100 (3–10 min); compound 1 (5.8 min), astragaloside IV (3.0 min), GA (8.7 min); the transitions monitored were the same as described in the previous section. Linear regressions over the concentration range 0.08–2 µM for compound 1 and 3.2 nM–2 µM for GA were examined using the peak-area ratio of the compounds to their internal standards and the least-squares method (r^2 > 0.98).

The next data set deals with CYP3A4. More on the design: method as in PMID 26712778, PMID 22943175. Particulars: competitive inhibitor; cited from earlier work.
The nature of data set [3]: pharmacokinetics in EHBRs orally treated with GA (200 mg/kg), LC-MS/MS. The data set is classed as in vivo, Eisai Hyperbilirubinemia rats (EHBRs). The settings on record: Eisai Hyperbilirubinemia rats (EHBR), rat, plasma; female EHBRs, GA 200 mg/kg oral, 12 h; read-out: plasma concentration 12 h after GA treatment. How it is done:
Female SD rats or EHBRs (9-week-old) were anesthetized by an intraperitoneal (i.p.) injection of urethane (1 g/kg) and their jugular veins were exposed. […] Aliquots (10 µl) of plasma or urine were mixed with 20 µl of subtilisin (0.91 U/ml), incubated at 37 °C for 30 min, followed by the addition of 70 µl of astragalloside IV solution (1 µg/ml in ethanol containing 0.5% formic acid), and kept at −20 °C for 30 min.

A further data set deals with rat kidney slices. Briefly: uptake by rat kidney slices. Type of data set: in vitro ADME. Particulars: pooled plasma of female EHBRs, pH 5.5, 2 h. As for the experimental part:
Female SD rats (9-week-old) were treated with urethane (1 g/kg, i.p.), and their kidneys were collected. After removal of the capsule, the kidneys were sliced at approximately 0.5-mm thickness in the frontal section of the organ, using a tissue slicer (Natsume Seisakusyo, Tokyo, Japan) and then cut at the renal hilus into two halves. The slices were pre-incubated at either 4 or 37 °C for 15 min in 24-well plates with 0.3 ml of the incubation medium (137 mM NaCl, 5.4 mM KCl, 0.95 mM CaCl2, 0.81 mM MgSO4, 0.44 mM KH2PO4, 0.25 mM Na2HPO4, 5.5 mM glucose, 10 mM MES, adjusted to pH 5.5). Five ml of pooled female EHBR plasma samples was lyophilized, and dissolved in 5 ml of the incubation medium. […] After washing with PBS three times, the kidney slices were homogenated in PBS using sonication, and the concentrations of protein were measured as mentioned above. […]
LC-ESI(+)MS/MS analysis was conducted at the following conditions: column, Scherzo SM-C18 (3 μm, 3 mm i.d. ×100 mm, Imtakt, Kyoto, Japan); mobile phase, (A) 5 mM AcNH4, (B) 125 mM AcNH4/acetonitrole 1:4, at a flow rate of 0.3 ml/min, with the following gradient profile: A:B = 50:50–0:100 (0–3 min) and 0:100 (3–10 min); compound 1 (5.8 min), astragaloside IV (3.0 min), GA (8.7 min); the transitions monitored were the same as described in the previous section. […]

Take `CC1(C)[C@@H](O[C@@H]2O[C@H](C(=O)O)[C@@H](O)[C@H](O)[C@H]2O)CC[C@]2(C)[C@H]3C(=O)C=C4[C@@H]5C[C@@](C)(C(=O)O)CC[C@]5(C)CC[C@@]4(C)[C@]3(C)CC[C@@H]12` [Compound 3MGA, 3-monoglucuronyl glycyrrhetinic acid]: the “substrate of OAT3” value at OAT3 is “is a substrate”. Also, on OAT1, the “substrate of OAT1” value is listed as “is a substrate”. Besides, the “cross-reactivity of anti-3MGA MAb” value in the data set with anti-3MGA MAb is reported as 100%. Also, the Tmax in data set [1] is 6 h. On rat 11β-HSD2, the IC50 is 0.26 µM.

As for `CC1(C)[C@@H](O)CC[C@]2(C)[C@H]3C(=O)C=C4[C@@H]5C[C@@](C)(C(=O)O)CC[C@]5(C)CC[C@@]4(C)[C@]3(C)CC[C@@H]12` [GA, 18β-glycyrrhetinic acid], the IC50 in the data set on CYP2C9 was 33 to 43 µM; in the data set on CYP2C19, 41 to 74 µM; with CYP3A4, 8.2 to 14 µM. Further, the concentration at 12 h in [2] (female, read-out: concentration in pooled plasma, female EHBRs) came to 7 µM; in data set [2] (male, read-out: concentration in pooled plasma, male EHBRs) it was 3.2 µM; in data set [3], 5.9 µM. Moreover, in the data set on rat kidney slices, the “uptake by kidney slices at 37 °C compared with 4 °C” value is “similar”. Also, in the data set with anti-3MGA MAb, the “cross-reactivity of anti-3MGA MAb” value stood at 1.04%.
